Laboratory results published in patent EP1283052A1, “Pharmaceutical composition containing caspase-8 and /or caspase-9 useful for overcoming glucocorticoid- and cancer therapy-induced apoptosis of tumours” (Deutsches Krebsforschungszentrum Stiftung des öffentlichen …, priority 2001, dated 2003).

Tested on: caspase-9 and -6
Experiment: Fluorometric caspase-6/9 activity assay in P693 cells
Format: cell-based, human
Details: cisplatin 2 µg/ml alone, Fig. 5a
Experimental: • (a) P693 and CEM cells were treated with cisplatin (2 µg/ml) in the absence or presence of DEX (1 µM) as indicated. 24 and 48 h following treatment cells were lysed and caspase-9 activity was determined using a fluorescent caspase-9 assay and spectroscopy. • (b) P5 and CEM cells were treated as described above. 24 h after stimulation Apaf-1 was immunoprecipitated from the cell extracts using a […]. Aliquotes of the precipitates were separated by three different gels and analysed by Western blotting using rabbit polyclonal Apaf-1, mAb cytochrome c or caspase-9 antibodies. The antibody heavy chain band (IgGH) ensures equal conditions. […]
• (A) Cell culture. […] The mice were given 0.28 mg/L DEX in drinking water, and the amount of water consumed was monitored. […] The tumour volumes were measured using callipers, and calculated using, as an approximation, the formula for volume of a hemi-ellipsoid: π(width^2 x length)/6. […] Early apoptotic changes were identified by staining of cells with fluoresceinthiocyanate (FITC)-conjugated annexin V and propidium iodide (Becton Dickinson, Heidelberg, Germany) and analysed by flow cytometry (FACScan, Becton Dickinson) as described (Herr et al., EMBO J. 16 (1997), 6200-6208) • (E) Immunohistochemistry. […] Bound antibodies were detected by FITC conjugated anti-mouse or anti-rabbit IgG (Molecular Probes Europe, Leiden, The Netherlands). […]

N.N.[Cl][Pt][Cl] [cisplatin]
caspase-6/9 activity: induced 24 h following cisplatin in P693 and CEM cells with increasing activity at 48 h
